Results from a melting point compilation (Tetko et al.; mined from patent text by program, amines drawn as free bases though some values may be those of a salt).

| SMILES | melting point |
| --- | --- |
| c1ccc(-c2csc3ncnc(NCc4ccco4)c23)cc1 | 77 to 79 °C |
| O=C1NC(=O)C(O)(c2c[nH]c3ccc(Br)cc23)C(=O)N1 | > 250 °C |
| CC(=O)Nc1ccccc1Nc1ccc(C(=O)c2ccccc2)cc1 | 155 to 157 °C |
| COc1ccc(/C=C/c2ccncc2)cc1OCCCCCc1ccccc1 | 98 to 100 °C |
| CN1CCC(C2(O)c3cc(F)ccc3CCc3cccnc32)CC1 (stereo unspecified) | 126 to 127 °C |
| COc1cc(C(=O)O)c(N)cc1OCc1ccccc1 | 159 to 161 °C |
| CN1C(=O)CC[C@]2(C)c3ccc(-c4cc(Cl)cc(Cl)c4)cc3CC[C@@H]12 | 172 °C |
| O=C(O)Cc1ccc2c(c1)NC(=O)CO2 | 237 to 239 °C |
| CCOC(=O)c1c[nH]c2c(=O)ccc(Cl)cc2c1=O | 138 to 140 °C |
| O=C1NCN(c2ccccc2)C12CCN(CCCn1c(=O)[nH]c3cc(Cl)ccc31)CC2 | 234 °C |
| CNC(=O)ON=C1SC(C)C(=O)N1N(C)C (stereo unspecified) | 110 to 113 °C |
| COC(=O)C1(O)C(=O)Nc2ccc(C(F)(F)F)cc2CC1c1ccc(OC)cc1 (stereo unspecified) | 196 to 198 °C |
| CCOC(=O)/C(N)=C/C(=O)/C=C/c1ccc(Cl)cc1F | 102 to 103 °C |
| COC(=O)c1cc(C(C)OC)c(C(F)(F)F)cc1N (stereo unspecified) | 112 to 114 °C |
| CN(c1ccccc1)c1nc(N(C)c2ccccc2)c2sccc2n1 | 120 to 122 °C |
| CC(C)(C)c1csc(-c2cc3cc(CSc4ccccc4C(=O)O)ccc3o2)n1 | 205 to 207 °C |
| COc1cc(C(O)(C(F)(F)F)C(F)(F)F)cc(Br)c1N(S(C)(=O)=O)S(C)(=O)=O | 193 °C |
| COc1cccc2c1OC(COS(=O)(=O)c1ccc(C)cc1)CC2 (stereo unspecified) | 115 to 117 °C |
| CC(C(=O)O)c1cccc(C(=O)c2cc3sccc3s2)c1 (stereo unspecified) | 133 °C |
| COc1cc(NC(=O)Nc2ccccc2)cc(OC)n1 | 190 to 192 °C |
| COc1cc2ncnc(Nc3cccc(Cl)c3F)c2cc1OC1CCN(C(=O)OC(C)(C)C)CC1 | 192 to 194 °C |
| CC(C)(C)c1ccc(CN(CCOc2cccc(N)c2N)C(=O)C(F)(F)F)cc1 | 72 to 74 °C |
| CC1(C)C(=NOCc2ccccc2)C(c2ccccc2)=C1c1ccc(S(C)(=O)=O)cc1 | 119 to 121 °C |
| CC(C)(C)OC(=O)NCC1CCN(CC2(C(=O)O)CCC2)CC1 | 160 °C |

| SMILES | melting point |
| --- | --- |
| O=C(O)CCC/C=C\[C@@H]1C[C@@H](NS(=O)(=O)c2ccc(Cl)cc2)CN1S(=O)(=O)c1ccc(Cl)cc1 | 111 to 113 °C |
| CCc1ccc2c(c1)C=Cc1cc(C)ccc1C2c1cn(-c2ccnc(N3CC(C(=O)O)C3)n2)c(=O)[nH]c1=O (stereo unspecified) | 244 °C |
| CSc1cc(N)nc(C(N)=O)c1 | 158 to 159 °C |
| CC(=O)N1CCCC2(Cc3ccc(Br)cc3)C(=O)N(c3cc(Cl)nc(Cl)c3)C(=O)N12 (stereo unspecified) | 91 °C |
| CCOC(=O)C(=Cc1ccccc1)c1csc(N)n1 | 162 °C |
| C[C@@H](CO)CCC[C@@H](C)[C@H]1C(=O)C[C@H]2[C@@H]3CC=C4C[C@@H](O)CC[C@]4(C)[C@H]3CC[C@]12C | 167 to 169 °C |
| N=C(N)Nc1nc(CCCCNc2c(NCCCCc3csc(NC(=N)N)n3)c(=O)c2=O)cs1 | 228 to 229 °C |
| COc1ccc(-c2cc(=O)n(CCc3ccccc3)nc2-c2ccc(OC)cc2)cc1 | 140 °C |
| COC(=O)c1cc2c3cc(OC)ccc3n(C)c2s1 | 124 to 125 °C |
| OC1(c2ccc(Cl)cc2)c2cc(Cl)c(Cl)cc2CCC1Br (stereo unspecified) | 103 to 104 °C |
| COC(=O)c1cc(C(=O)O)ccc1N | 224 °C |
| NC(CCCCNC(=O)NC(Cc1c[nH]c2ccccc12)C(=O)O)C(=O)O (stereo unspecified) | 133 °C |
| O=S(=O)(NC1Cc2ccc(CCO)cc2C1)c1ccc(Cl)cc1 (stereo unspecified) | 71 to 76 °C |
| CCCN1C(=O)C2(c3ccc([N+](=O)[O-])cc3)CC(c3ccc([N+](=O)[O-])cc3)(C2)C1=O | 237 to 238 °C |
| Cn1nnc(Cc2ccc(NC(=O)/C=C/c3cnn(C)c3-c3ccc(F)cc3)cc2)n1 | 159 to 161 °C |
| Cc1nn(C)c2ncc(C(=O)O)c(NCS(=O)(=O)c3ccc(F)cc3)c12 | 275 to 276 °C |
| Clc1cnc2cccc(Cl)c2n1 | 120 to 122 °C |
| CC(=O)Oc1cc2c(cc1C(C)(C)C)OC(C)(CCOc1ccc(CC3SC(=N)NC3=O)cc1)CC2 (stereo unspecified) | 175 to 178 °C |
| O=c1c(CCCCBr)c(O)c2cccnc2n1-c1ccccc1 | 169 to 171 °C |
| CS(=O)(=O)Nc1nc(CCCN2CCN(C(c3ccccc3)c3ccccc3)CC2)cs1 | 181 to 183 °C |
| ClCc1nnc2n1-c1ccc(Cl)cc1C(c1ccccc1Cl)=NC2 | 195 to 198 °C |
| Cc1ccc(-c2nc(Cc3cc4cc(CO)ccc4o3)c(C)o2)cc1 | 156 to 160 °C |
| O=C1N[C@@H](C(=O)N2C[C@H](O)C[C@H]2C(=O)O)CCCCCC[C@@H]1CS | 128 to 130 °C |
| Cc1nc(N2CCN(Cc3cccc(F)c3)C2=O)sc1C(=O)NCc1ccccc1 | 155 to 156 °C |

| SMILES | melting point |
| --- | --- |
| COc1ccc(-c2cc(-c3ccc(OC)c(OC)c3)c(C#N)c(C)n2)cc1 | 187 to 188 °C |
| CCCC[C@H](NC(=O)[C@H](CCC(=O)O)NC(=O)OCc1ccccc1)C(=O)CSCc1ccco1 | 67 to 71 °C |
| Cc1nnc(-c2ccc3occ(-c4ccc(OC(F)(F)F)cc4)c3c2)o1 | 129 to 130 °C |
| OC1(c2ccc3[nH]cc(CCN4CCCC4)c3c2)CCCCC1 | 66 to 78 °C |
| CCc1cnc(N2CCN(C(=O)c3ccccc3NC3=c4ccccc4=NCN3c3ccccc3)CC2)nc1 | 204 to 205 °C |
| CC(C)(C)C(=O)c1cn(COCC[Si](C)(C)C)c2ncc(-c3ccc4c(ccn4Cc4ccccn4)c3)nc12 | 194 to 196 °C |
| NC(=S)c1cccc2nnsc12 | 129 to 131 °C |
| CCCCc1nc(S(=O)(=O)c2ccccc2)c(C(=O)O)n1Cc1ccc(-c2ccccc2C(=O)O)cc1 | 140 °C |
| CCOC(=O)c1c(CCl)nc2cc(OC)c(OC)cc2c1-c1ccc(Cl)cc1 | 153 to 154 °C |
| Cc1cc2ccccc2c(-c2cccc(I)c2)n1 | 77 to 78 °C |
| CCCCn1c(=O)c2nc(C(=O)O)cn2c2ccccc21 | 220 to 222 °C |
| O=S1(=O)N=CN(CCF)c2cc(Cl)c(Cl)cc21 | 233 to 234 °C |
| COc1ccc2[nH]c(C(N)=O)c(OC(C)C)c2c1 | 138 to 140 °C |
| Cc1cc(Cc2cnc(NCCCCc3ncc(Br)cc3C)[nH]c2=O)cnc1C | 126 to 128 °C |
| CCOC(=O)/C=C/c1cnn(C)c1 | 43 to 44 °C |
| CC1CC(C)CN(C(=O)c2ccc([N+](=O)[O-])cc2)C1 (stereo unspecified) | 120 to 125 °C |
| C#CCN(C(=O)c1ccco1)c1c(C)cccc1C | 113 °C |
| Cc1ccc(S(=O)(=O)NCCc2cccc(OCC(=O)NCc3ccccc3)c2)cc1 | 118 to 120 °C |
| O=C(O)[C@H](Cc1ccccc1)Nc1c(NC(c2ccccc2)c2ccccc2)c(=O)c1=O | 187 to 188 °C |
| CC(C)Oc1ccc2c(c1)N(C)C(=O)N(c1ccc(Cl)cc1)S2(=O)=O | 157 to 159 °C |
| CC(C)(NC(=O)CCn1cnc(C=O)c1)c1ccc(Cl)c(Cl)c1 | 161 to 163 °C |
| Cc1ccc(Sc2cc3c(cc2Sc2ccc(C)cc2)C(=O)c2c(c(O)c4cc(Sc5ccc(C)cc5)c(Sc5ccc(C)cc5)cc4c2O)C3=O)cc1 | > 265 °C |
| C[C@@H]1CN(C(=O)[C@@](C)(O)C(F)(F)F)[C@@H](C)CN1S(=O)(=O)c1cccs1 | 116 to 117 °C |
| COC(=O)CCN1C[C@H]2Cc3ccccc3[C@H](c3ccccc3)[C@H]2C1 (racemic) | 75 to 76 °C |

| SMILES | melting point |
| --- | --- |
| Oc1ccccc1-c1nc(-c2ccccc2O)n(Cc2ccccc2)n1 | 166 to 168 °C |
| CC(C)NC[C@H](O)COc1ccc(OCc2ccccc2)cc1 | 93 to 95 °C |
| COc1cc(NCCCCCCN2CCN(CCCO)CC2)c2nccc(C)c2c1 | 100 to 102 °C |
| O=C(NCc1ccc([N+](=O)[O-])cc1)N(c1ccccc1)c1ccccc1 | 137 to 138 °C |
| CC1(C)CC(=O)c2cc(SCc3ccccc3)[nH]c2C1 | 148 to 150 °C |
| Cc1cc2n(C)c(=O)c3cnccc3n2n1 | > 300 °C |
| CC1(c2cccc(C3(O)CCCCC3)c2)OCCO1 | 55 to 57 °C |
| CC/C(=C(\c1ccc(/C=C/C(=O)O)cc1)c1ccc(OC(=O)OC)cc1)c1ccccc1 | 140 to 142 °C |
| COc1cc(OCCOc2ccc(C(=O)C(=O)O)cc2)cc(OC)c1OC | 118 to 119 °C |
| CC(=O)N1CCN=C1Nc1c(C)c(C)nn1C | 212 to 215 °C |
| O=C(O)COc1cccc(OCCC(c2ccccc2)(c2ccccc2)c2ccccc2)c1 | 69 to 71 °C |
| CC(C)(Sc1ccc2c(-c3ccccc3F)noc2c1Cl)C(=O)O | 149 °C |
| CCCc1c(OCCCCCOc2ccc3nc(CCC(=O)OCC)ccc3c2CCC(=O)OCC)ccc2c1OCCC2=O | 59 to 61 °C |
| Cc1ccc2c(c1)C(O)(c1ccccc1Cl)C(=O)N2 (stereo unspecified) | 295 to 300 °C |
| Nc1ncc(-c2cnc3ccc(-c4ccc(OCC5(NC(=O)OCc6ccccc6)COC5)cc4)nn23)cc1C(F)(F)F | 202 to 203 °C |
| O=C1C2=CC=CCC2C(O)N1CCN1CCC(c2noc3cc(F)ccc23)CC1 (stereo unspecified) | 172 to 173 °C |
| CCn1cc(C(=O)O)c(=O)c2cc(F)c(N3CCSC3)nc21 | 268 to 270 °C |
| CCCCCCCCOc1ccc(C(=O)NNc2nc(NNC(=O)c3ccc(OCCCCCCCC)cc3O)nc(N(CCC)CCC)n2)c(O)c1 | 195 to 196 °C |
| CCC(COC)Nc1nc(C)nc(N2CCc3cc(OC)cc(Cl)c32)c1C#N (stereo unspecified) | 182 to 183 °C |
| CCOC(=O)Cn1c(-c2cccc(Cl)c2)nc2cccnc21 | 98 to 99.8 °C |
| CC1(C)CC(O)C(C)(C)c2cc(/C=C/c3ccc(C(=O)O)cc3)c(Cn3cccn3)cc21 (stereo unspecified) | 248 °C |
| O=C(O)c1cc(C(=O)O)c(C(O)=NCO)cc1C(O)=NCO | 300 °C |
| CC(Cc1cc(-c2ccccc2)nc2ccccc12)C(=O)N(C)C1CCCCC1 (stereo unspecified) | 160 °C |
| COc1ccc2cc(-n3c(C)nnc3C)cc(C)c2n1 | 211 to 213 °C |
